We go through one molecule from US20250041283A1, “COCRYSTAL OF AN IDH1 INHIBITOR, PROCESS OF PREPARATION THEREOF, PHARMACEUTICAL COMPOSITIONS THEREOF, AND METHODS OF TREATMENT INVOLVING THE SAME” (Servier Pharmaceuticals LLC, priority 2023, published 2025).

Data set [1] is described as follows: Solubility in biorelevant media (SGF, FASSIF). The data set is classed as physicochemical. As to conditions: thermodynamic from solid, 37° C., after 1 h.
Data set [2] is described as follows: Physicochemical stability of cocrystal powder stressed at different temperatures and humidities (XRPD). As to conditions: 6 weeks and 12 months at 25° C./60% RH, 25° C./90% RH, 40° C./75% RH and 50° C. The method, then:
FIG. 5 depicts the overlay of the X-ray diffraction spectra of the glutaric acid cocrystal type A of Compound 1 stressed 6 weeks at 25° C./60% RH, 25° C./90% RH, 40° C./75% RH and 50° C. with the theoretical X-ray diffraction spectrum of the said cocrystal (calculated form the single crystal structure).
FIG. 6 depicts the overlay of the X-ray diffraction spectra of the glutaric acid cocrystal type A of Compound 1 stressed 12 months at 25° C./60% RH, 25° C./90% RH, 40° C./75% RH and 50° C. with the theoretical X-ray diffraction spectrum of the said cocrystal (calculated form the single crystal structure).
The XRPD patterns were recorded from 3.5° 2q to 35° 2q using an Empyrean diffractometer from Panalytical operating in the transmission mode with CuKα radiation (l=1.5418 Å) at 45 kV and 40 mA and with a 0.013° 2q step size for 15 minutes (list of examples).

The nature of data set [3]: Sorption/desorption isotherm 0% RH to 90% RH at 25° C. The data set is classed as physicochemical. As for the experimental part:
The sorption isotherm of the cocrystal was recorded between 0% RH and 90% RH at 25° C. (see FIG. 7).
The sorption/desorption isotherm of the cocrystal was recorded using the following method: • Equilibrate the sample at 0% RH until the dm/dt was below 0.0005% for 30 consecutive minutes or until maximum 24 hours. • Increase of the relative humidity up to 90% RH with step every 10% RH. Each step was maintained until the dm/dt was below 0.0005% for 30 consecutive minutes or until maximum 24 hours. • Decrease of the relative humidity up to 0% RH with step every 10% RH. Each step was maintained until the dm/dt was below 0.0005% for 30 consecutive minutes or until maximum 24 hours.

Data set [4] is described as follows: Tablets by direct compression: hardness and tensile strength. As to conditions: 50 mg tablets, 0.5% magnesium stearate. The data set is classed as physicochemical. The method, then:
Tablets were prepared by direct compression using a STYL'ONE EVO compaction simulator from Medelpharm Instruments.
Compound 1, either in Form 1, Form T11 or as a glutaric acid cocrystal type A was lubricated by 0.5% magnesium stearate before compression. 99.5% of Compound 1 and 0.5% of magnesium stearate (e.g., 4.975 g of Compound 1 and 0.025 g of magnesium stearate) were used. Compound 1 was weighed, and magnesium stearate was sifted on a 0.4 mm sieve and added progressively to Compound 1. The mixture was homogenized using a Turbula T2F blender for 5 minutes.
50 mg tablets were prepared using a STYL'ONE EVO compaction simulator applying a compressing force of 2.5 kN or 5.0 kN.

The nature of data set [5]: Flowability of lubricated mixtures (European Pharmacopeia). The data set is classed as physicochemical. The method, then: The flowability of the lubricated mixture previously prepared was measured according to the Guidelines of European Pharmacopeia.
Data set [6] is described as follows: Comparative rat PK study, oral capsules. Format: in vivo. As to conditions: male Wistar rats, 24 mg/kg. As for the experimental part: The objective of this study was to compare the pharmacokinetics (PK) of four oral (PO) dosage forms of Compound 1 in male Wistar rats (4 groups, N=3/group). Lubricated mixtures prepared from Examples 5A (prepared from Form 1 and Form T11) and 5B (prepared from cocrystal of Example 1) and amorphous solid dispersion of Compound 1 obtained through spray drying as in commercial batches were manually and individually filled in capsules (Size 9).
The administered dose was 24 mg/kg, considering that each rat's weight was around 250 g.
Methods: Animals were fasted approximately 6 hours before dosing and fed 3 at 4 hours post-dose. All animals had free access to water. Compound 1 dose were given to rats via oral gavage (2 capsules/one single administration). Blood samples were collected via the saphenous vein into test tubes containing potassium ethylenediaminetetraacetic acid (K2EDTA) from all animals at 0.25, 0.5, 1, 2, 4, 8, 24, 48 and 72 hours post-dose. Blood sample were centrifuged at 2000 g for 5 minutes to obtain plasma samples. Compound 1 concentration in plasma samples was quantified using a liquid chromatography with tandem mass spectrometry (LC-MS/MS) method. The lower limit of quantification was 1.00 ng/mL with a sample volume of 20 μL.

Data set [7] in a line: Four weeks stability study of lubricated mixtures and tablets (XRPD). Particulars: 4 weeks, open vials, 25° C./60% RH and 40° C./75% RH. The data set is classed as physicochemical. The method, then: Four weeks stability of samples of lubricated mixtures of Example 3B and 5B and tablets of Example 6 prepared from cocrystal of Example 1 was tested according to the following protocol.
All the samples were stored 4 weeks in controlled temperature and humidity chambers in open vials at 25° C./60% RH or 40° C./75% RH. The XPRD analyses were performed extemporaneously in order to be representative of all the samples at temperature and humidity equilibria.
Tablets of Cocrystal+AQ/AV or AV (from Example 6) were gently grinded leading a powder suitable for XRPD analysis. Lubricated mixtures from Examples 3B and 5B were analyzed without grinding. The XRPD patterns were recorded from 3.5° 2q to 35° 2q using an Empyrean diffractometer from Panalytical operating in the transmission mode with CuKα radiation (l=1.5418 Å) at 45 kV and 40 mA and with a 0.013° 2q step size for 30 minutes.

Where [8] appears, read: compressive force applied 2.5 kN.
Where [9] appears, read: compressive force applied 5.0 kN.
Setting [10] is: lubricated mixtures of Examples 3A and 3B.

`N#Cc1ccnc(N2C(=O)CC[C@H]2C(=O)N(c2cncc(F)c2)[C@H](C(=O)NC2CC(F)(F)C2)c2ccccc2Cl)c1` [Glutaric acid cocrystal of Compound 1] had a solubility at 1 h in data set [1] (simulated gastric fluid, SGF) of 8 µg/mL. Moreover, in data set [1] (FASSIF), the solubility at 1 h is 13 µg/mL. Further, the “Physicochemical stability of the powder” value in data set [2] was “physicochemically stable”. The “Stability in humidity conditions (sorption isotherm)” value in data set [3] is “stable”. In data set [4] (setting [8]), this molecule had a Tablet hardness of 41.6 N and a Tensile strength of 2.562 MPa. In data set [4] (setting [9]), this molecule gave a Tablet hardness of 46.4 N and a Tensile strength of 2.998 MPa. In data set [5] (setting [10]), the “Carr's Index” value is 24%, the “Carr's Index (flowability) rating” value is “Adequate”, the “Flowability” value is “suitable flowability” and the Hausner ratio is on record as 1.32. Also, in data set [5] (setting [10]), the “Hausner ratio (cohesion + compressibility) rating” value is reported as “Adequate”. In addition, the Flow time in data set [5] (lubricated mixtures of Examples 3A and 3B (AV, without AQ), N.S.F. = no spontaneous flow detected) came out at 8.3 s. Also, in data set [6], the Inter-individual variability was found to be 11% and the “Kinetics of absorption / absorption profile versus commercial formulation” value is “comparable to the one of the commercial formulation”. Besides, the bioavailability in data set [6] (rat, plasma, read-out: Relative bioavailability compared to commercial formulation) came out at 61%. Further, the “Stability of the cocrystal in lubricated mixtures and tablets (AQ/AV or AV)” value in data set [7] is “perfectly stable”.

The term solubility denotes the dissolved amount per volume that the medium holds. The low end stands for a poorly soluble substance, the high end for a readily soluble substance. What is called bioavailability is the share of a dose that reaches the circulation, judged against a reference dose that is usually intravenous.
